Laboratory results: the NIST ThermoML archive (doi:10.1016/j.tca.2004.11.015)

Conditions: 101.33 kPa, Liquid, Vibrating tube method

NCCO [2-aminoethan-1-ol]
Conditions | mass density [kg/m3]
281.15 K | 1025.55
283.15 K | 1023.99
285.15 K | 1022.42
287.15 K | 1020.84
289.15 K | 1019.26
291.15 K | 1017.68
293.15 K | 1016.1
295.15 K | 1014.52
297.15 K | 1012.94
299.15 K | 1011.35
301.15 K | 1009.76
303.15 K | 1008.17
305.15 K | 1006.58
307.15 K | 1004.99
309.15 K | 1003.4
311.15 K | 1001.8
313.15 K | 1000.21
315.15 K | 998.6
317.15 K | 997
319.15 K | 995.4
321.15 K | 993.79
323.15 K | 992.19
325.15 K | 990.58
327.15 K | 988.96
329.15 K | 987.34
331.15 K | 985.72
333.15 K | 984.1
335.15 K | 982.48
337.15 K | 980.85
339.15 K | 979.21
341.15 K | 977.58
343.15 K | 975.94
345.15 K | 974.3
347.15 K | 972.65
349.15 K | 970.99
351.15 K | 969.34
353.15 K | 967.68

CO [methanol]
Conditions | mass density [kg/m3]
283.15 K | 800.67
288.15 K | 795.99
293.15 K | 791.29
298.15 K | 786.58
303.15 K | 781.86
308.15 K | 777.1
313.15 K | 772.32
318.15 K | 767.52
323.15 K | 762.67
328.15 K | 757.77
333.15 K | 752.83
